Measurements reported in PMC6197744, “Triazolo[4,5-d]pyrimidines as Validated General Control Nonderepressible 2 (GCN2) Protein Kinase Inhibitors Reduce Growth of Leukemia Cells” (Computational and Structural Biotechnology Journal, 2018).

Tests used:
Experiment in all cases: NCI-60 one-dose screen
Assay type in all cases: cell-based
[1] = tested on: A498; details: Homo sapiens; Renal A498, 10 μM, 48 h; read-out: Percent growth inhibition
Method: (§1) Compounds 1 and 2 were submitted to the National Cancer Institute NCI-60 Tumor Cell Screening Program (NCI number 800,700 and 800,701, respectively) for evaluation against the 60 cell line NCI panel at a single dose of 10 μM. […] Leukemia and breast cancer cell lines comprised the only cancer groups that were uniformly sensitive to both 1 and 2, with the greatest sensitivity seen in the leukemia SR cell line.
(§2) Compounds 1 and 2 were submitted to the NCI for growth inhibition screening against its panel of 60 cancer cell lines. The NCI screening protocol has extensively been described [[53], [54], [55], [56]]. Briefly, cancerous cell lines were grown in RPMI 1640 medium containing 5% fetal bovine serum and 2 mM L-glutamine. Depending on the doubling time of each cell line, 5000–40,000 cells were seeded in 96-well plates for 24 h. Cells were then treated with compounds 1 or 2 at a concentration of 10 μM and incubated for 48 h at 37 °C in a humidified atmosphere containing 5% CO2. The cells were then fixed and stained with sulforhodamine B (SRB) to determine their viability. The data were analyzed using a program called COMPARE to determine the percent growth inhibition of each compound.

[2] = tested on: A549; details: Homo sapiens; Non-Small Cell Lung A549, 10 μM, 48 h; read-out: Percent growth inhibition
Method: as §1, §2

[3] = tested on: BT-549; details: Homo sapiens; Breast BT-549, 10 μM, 48 h; read-out: Percent growth inhibition
Method: as §1, §2

[4] = tested on: COLO205; details: Homo sapiens, COLO 205; Colon COLO205, 10 μM, 48 h; read-out: Percent growth inhibition
Method: as §1, §2

[5] = tested on: DU-145; details: Homo sapiens; Prostate DU-145, 10 μM, 48 h; read-out: Percent growth inhibition
Method: as §1, §2

[6] = tested on: HOP-62; details: Homo sapiens; Non-Small Cell Lung HOP-62, 10 μM, 48 h; read-out: Percent growth inhibition
Method: as §1, §2

[7] = tested on: IGROV1; details: Homo sapiens, IGROV-1; Ovarian IGROV1, 10 μM, 48 h; read-out: Percent growth inhibition
Method: as §1, §2

[8] = tested on: KM12; details: Homo sapiens; Colon KM12, 10 μM, 48 h; read-out: Percent growth inhibition
Method: as §1, §2

[9] = tested on: LOXIMVI; details: Homo sapiens, LOX IMVI, Melanoma LOXIMVI, 48 h, read-out: Percent growth inhibition
Method: as §1, §2

[10] = tested on: M14; details: Homo sapiens; Melanoma M14, 10 μM, 48 h; read-out: Percent growth inhibition
Method: as §1, §2

[11] = tested on: MDA-MB-435; details: Homo sapiens; Melanoma MDA-MB-435, 10 μM, 48 h; read-out: Percent growth inhibition
Method: as §1, §2

[12] = tested on: MDA-MB-468; details: Homo sapiens; Breast MDA-MB-468, 10 μM, 48 h; read-out: Percent growth inhibition
Method: as §1, §2

[13] = tested on: MOLT-4; details: Homo sapiens; Leukemia MOLT-4, 10 μM, 48 h; read-out: Percent growth inhibition
Method: as §1, §2

[14] = tested on: NCI-H226; details: Homo sapiens, NCI-H226, 48 h, Non-Small Cell Lung NCI-H226, 10 μM, read-out: Percent growth inhibition
Method: as §1, §2

[15] = tested on: NCI-H322M; details: Homo sapiens, Non-Small Cell Lung NCI-H322M, 48 h, read-out: Percent growth inhibition
Method: as §1, §2

[16] = tested on: NCI-H522; details: Homo sapiens; Non-Small Cell Lung NCI-H522, 10 μM, 48 h; read-out: Percent growth inhibition
Method: as §1, §2

[17] = tested on: OVCAR-4; details: Homo sapiens; Ovarian OVCAR-4, 10 μM, 48 h; read-out: Percent growth inhibition
Method: as §1, §2

[18] = tested on: OVCAR-8; details: Homo sapiens; Ovarian OVCAR-8, 10 μM, 48 h; read-out: Percent growth inhibition
Method: as §1, §2

[19] = tested on: PC-3; details: Homo sapiens; Prostate PC-3, 10 μM, 48 h; read-out: Percent growth inhibition
Method: as §1, §2

[20] = tested on: RPMI-8226; details: Homo sapiens; Leukemia RPMI-8226, 10 μM, 48 h; read-out: Percent growth inhibition
Method: as §1, §2

[21] = tested on: RXF393; details: Homo sapiens, RXF 393; Renal RXF393, 10 μM, 48 h; read-out: Percent growth inhibition
Method: as §1, §2

[22] = tested on: SK-OV-3; details: Homo sapiens, SK-OV-3, 48 h, Ovarian SK-OV-3, 10 μM, read-out: Percent growth inhibition
Method: as §1, §2

[23] = tested on: SNB-75; details: Homo sapiens; CNS SNB-75, 10 μM, 48 h; read-out: Percent growth inhibition
Method: as §1, §2

[24] = tested on: SR; details: Homo sapiens, 48 h, Leukemia SR, read-out: Percent growth inhibition
Method: as §1, §2

[25] = tested on: SW-620; details: Homo sapiens; Colon SW-620, 10 μM, 48 h; read-out: Percent growth inhibition
Method: as §1, §2

[26] = tested on: T-47D; details: Homo sapiens, T47D, Breast T-47D, 48 h, read-out: Percent growth inhibition
Method: as §1, §2

[27] = tested on: TK-10; details: Homo sapiens; Renal TK-10, 10 μM, 48 h; read-out: Percent growth inhibition
Method: as §1, §2

[28] = tested on: UACC-257; details: Homo sapiens; Melanoma UACC-257, 10 μM, 48 h; read-out: Percent growth inhibition
Method: as §1, §2

[29] = tested on: UACC-62; details: Homo sapiens; Melanoma UACC-62, 10 μM, 48 h; read-out: Percent growth inhibition
Method: as §1, §2

Structure (SMILES) | inhibition at 10 µM [1] [%] | inhibition at 10 µM [2] [%] | inhibition at 10 µM [3] [%] | inhibition at 10 µM [4] [%] | inhibition at 10 µM [5] [%] | inhibition at 10 µM [6] [%] | inhibition at 10 µM [7] [%] | inhibition at 10 µM [8] [%] | inhibition at 10 µM [9] [%] | inhibition at 10 µM [10] [%] | inhibition at 10 µM [11] [%] | inhibition at 10 µM [12] [%] | inhibition at 10 µM [13] [%] | inhibition at 10 µM [14] [%] | inhibition at 10 µM [15] [%] | inhibition at 10 µM [16] [%] | inhibition at 10 µM [17] [%] | inhibition at 10 µM [18] [%] | inhibition at 10 µM [19] [%] | inhibition at 10 µM [20] [%] | also measured
CCn1cc(Nc2ncc3nnn(-c4ccc(C(=O)OC)cc4)c3n2)cn1 [Compound 1, Methyl 4-(5-((1-ethyl-1H-pyrazol-4-yl)amino)-3H-[1,2,3]triazolo[4,5-d]pyrimidin-3-yl)benzoate] | 10.5 | 18.6 | 24.2 | 16.3 | -9.96 | 21.1 | -16.8 | 7.33 | 34.9 | 17 | 9.99 | 6.13 | 21.6 | 34.6 | -3.7 | 24.3 | -12 | 13.8 | 16.7 | 10.8 | inhibition at 10 µM [21]: -4.13%; inhibition at 10 µM [22]: 22%; inhibition at 10 µM [23]: 23.4%; inhibition at 10 µM [24]: 43.4%; inhibition at 10 µM [25]: -5.07%; inhibition at 10 µM [26]: 25.8%; inhibition at 10 µM [27]: 6.48%; inhibition at 10 µM [28]: 13.6%; inhibition at 10 µM [29]: 5.19%
CCOc1ccc(-n2nnc3cnc(Nc4cnn(CC)c4)nc32)cc1 [Compound 2, 3-(4-Ethoxyphenyl)-N-(1-ethyl-1H-pyrazol-4-yl)-3H-[1,2,3]triazolo[4,5-d]pyrimidin-5-amine] | 44.1 | 25.2 | 16.2 | 29.9 | 2.46 | 15.7 | 5.39 | 25.9 | 45.7 | 10.9 | 20 | 9.91 | 23.2 | 46.3 | -5.07 | 31.8 | -14.7 | 21.2 | 23.4 | 17 | inhibition at 10 µM [21]: 43.8%; inhibition at 10 µM [22]: 46.3%; inhibition at 10 µM [23]: 44.6%; inhibition at 10 µM [24]: 57.5%; inhibition at 10 µM [25]: -17.3%; inhibition at 10 µM [26]: 20.7%; inhibition at 10 µM [27]: 1.47%; inhibition at 10 µM [28]: 21.3%; inhibition at 10 µM [29]: 1.67%
